This is an account of results in patent US20100316677A1, “USE OF BAMBOO LEAF TOTAL FLAVONES IN THE PREPARATION OF MEDICINE AND HEALTH FOOD FOR PREVENTION AND TREATMENT OF PROSTATIC DISEASES” (ZHEJIANG UNIVERSITY (HANGZHOU) LEAF BIO-TECHNOLOGY CO., LTD., priority 2003, published 2010).

In test [1] the test system is growth of the prostate and accessorial sex organs. In words: growth of the prostate and the accessorial sex organs of young mice. It is filed as in vivo, ICR young male mice. As to conditions: 0.5 mg/kg sc once every 3 days, 5 times. The protocol: Assign ICR young male mice, body weight 10-12 g, into groups according to their body weight, 10-11 mice in each group: (1) controlled group: water of equal volume, 0.8 mL/20 g, ig; (2) estradiol group: estradiol 0.5 mg/kg, sc, once every 3 days, for 5 times; (3) high-dose group: EOB-f01 400 mg/kg, ig; (4) moderate-dose group: EOB-f01 200 mg/kg, ig; (5) low-dose group: EOB-f01 100 mg/kg, ig. Once per day, for 14 days. On the fifteenth day, sacrifice the mice, anatomize and weigh the abdominal, side, and back parts of the prostate, and seminal vesicle, testis, and elevator ani muscle.

Test [2] concerns prostatic hyperplasia caused by testosterone propionate. The test can be described thus: prostatic hyperplasia caused by testosterone propionate. The format is in vivo, ICR mice. As to conditions: testosterone propionate mice, 0.5 mg/kg sc once every 3 days, 5 times. Here is the method:
Randomly assign ICR mice, male, body weight 18-21g, into 7 groups, 10-11 mice in each group: (1) controlled group: water of equal volume, 0.8 mL/20 g, ig; (2) model group: 0.8 mL/20 g water of equal volume, ig; (3) estradiol group: estradiol 0.5 mg/kg, sc, once every 3 days, for 5 times; (4) high-dose group: EOB-f01 400 mg/kg ig; (5) moderate-dose group: EOB-f01 200 mg/kg, ig; (6) low-dose group: EOB-f01 100 mg/kg, ig. Once per day, for 14 days. Except the controlled group (1), various groups (2)-(6) with testosterone propionate 5 mg/mL per day, sc, for 14 d. On the fifteenth day, sacrifice the mice, anatomize them, take and weigh the abdominal, side, and back parts of the prostate, and evaluate anti-hyperplasia effects of EOB-f01.

In test [3] the test system is swelling of ear auricle caused by croton oil. In words: swelling of ear auricle of mice caused by croton oil. As to conditions: 10 mg/kg ig once, blank control 19.8 ± 2.9. It is filed as in vivo. Here is the method: Randomly assign mice into 5 groups, 12 mice in each group, as follows: (1) Blank-controlled group: saline of equal volume, 0.8 mL/20 g; (2) Positive-controlled group: indomethacin 10 mg/kg; (3) High-dose group: 10 mg/mL EOB-f01, 400 mg/kg; (4) moderate-dose group: 5 mg/mL EOB-f01, 200 mg/kg; (5) Low-dose group: 2.5 mg/mL EOB-f01, 100 mg/kg. The animals received the administration through gastric irrigation (ig). once per day for 7 continuous days (for indomethacin, only once); in 1 h after the final dose, smear the right ear of the mice with 2% croton oil, 0.02 ml/mouse, cause inflammation, sacrifice them after 4 h, shear away their left and right ears, punch down their left and right ear slice with 9 mm trephine, and weigh them, taking the difference of weights between left and right ear slices as the swelling rate.

Test [4] concerns prostatitis caused by carrageenan. The test can be described thus: prostatitis caused by carrageenan (prostate weight, histopathology). The format is in vivo, SD male rats. As to conditions: carrageenan rats. Here is the method:
[…] Give the rats through gastric irrigation once per day, for 7 days (indomethacin, only once prior to operation), and begin the operation in 0.5 h after the final dose.
Conduct anesthesia for the rats, then fix them in supine position, shear off hair at their abdomen, and sterilized by iodine tinture; under sterilized condition, cut 1.5 cm at the center of their abdomen, expose the abdominal part of prostate, inject rats in (2)-(6) groups with 1% carrageenan saline, 0.02 mL/rat, with No. 4.5 syringe, immediately return the prostate to the abdominal cavity, add 1 drop of penicillin in the abdominal cavity, and immediately suture the abdominal cavity by two-layer ways. Replace carrageenan with saline 0.02 mL/rat, for rat in the controlled group (1), and conduct pseudo-operation. In 4 h after operation, sacrifice the rats, anatomize and separate each part of the prostate, weigh wet weight, and compare swelling extents between the dose groups and the model group. Take the abdominal part of the prostate of rats, fix with 10% formalin, dehydrate routinely, imbedded with paraffin, slice up, conduct HE staining, and observe pathological changes under a microscope.
Observation criteria for pathology of prostatic tissue from rats of each group: (1) Score of stroma swelling or blood vessel hyperemia: no stroma swelling or blood vessel hyperemia, 0; mild stroma swelling or blood vessel hyperemia, 1; moderate stroma swelling or blood vessel hyperemia, 2; severe stroma swelling or blood vessel hyperemia, 3; (2) Score of infiltration of inflammatory cells: no stroma inflammatory cells, 0; small amount of stroma inflammatory cells, 1; moderate amount of stroma inflammatory cells, 2; high amount of stroma inflammatory cells, 3; stroma diffuse inflammatory cells, 4.

In test [5] the test system is swelling of ear auricle caused by xylene. In words: swelling of ear auricle of mice caused by xylene. It is filed as in vivo. As to conditions: 10 mg/kg ig once, blank control 11.4 ± 4.9. The protocol: Assign the mice into 5 groups according to their body weight, 10 mice in each group, as 2.1 section. Give the mice once per day through gastric irrigation (ig), for 7 days (indomethacin, given only once); in 30 min after the final dose, smear the right ear of the mice with xylene, 0.05 ml/mouse, cause inflammation, sacrifice them in 15 min, shear away their left and right ears, punch down their left and right ear slice with 9 mm trephine, and weigh them, taking the difference of weights between left and right ear slices as the swelling rate. Judge the effects compared with those of the controlled groups.

The structures appear in SMILES notation.

For `C[C@]12CC[C@@H]3c4ccc(O)cc4CC[C@H]3[C@@H]1CC[C@@H]2O` [Estradiol, estradiol], the “Prostate weights, Back part” value stood at 1.1 ± 0.9 mg in test [1] (blank control 4.2 ± 1.5) and 5.1 ± 1.6 mg in test [2] (model 7.8 ± 1.8). Besides, the figures for the “Prostate weights, Abdominal part” value in test [1] (blank control 6.7 ± 1.1) and in test [2] (model 11.3 ± 2.8) were 1.7 ± 0.5 mg and 7.0 ± 1.7 mg, respectively. Besides, the “Prostate weights, Side part” value amounted to 1.5 ± 1.3 mg in test [1] (blank control 9.6 ± 3.3) and 15.1 ± 2.7 mg in test [2] (model 23.6 ± 6.2). Moreover, the Seminal vesicle in test [1] (organ weight, blank control 34.1 ± 11.3) was 7.3 ± 2.5 mg. This molecule also gave an Elevator ani muscle in test [1] (organ weight, blank control 42.5 ± 10.6) of 14.1 ± 3.3 mg. The molecule further yielded a Testis in test [1] (organ weight, blank control 151.3 ± 28.2) of 58.0 ± 12.8 mg.

Regarding `COc1ccc2c(c1)c(CC(=O)O)c(C)n2C(=O)c1ccc(Cl)cc1` [Indomethacin, indomethacin], the “Swelling rate of ear auricle” value was 14.8 ± 5.1 mg in test [3] and 6.4 ± 2.3 mg in test [5]. Moreover, in test [4] (12 mg/kg ig once, model 73.3 ± 17.3), the “Prostate weights, Side part” value was found to be 62.0 ± 12.3 mg. In addition, the “Prostate weights, Back part” value in test [4] (12 mg/kg ig once, model 122.1 ± 23.3) amounted to 128.6 ± 20.9 mg. In addition, the “Prostate weights, Abdominal part” value in test [4] (12 mg/kg ig once, model 466.5 ± 79.1) is recorded as 358.1 ± 79.2 mg. For the same molecule, the “Degree of dilation or swelling of stroma blood vessels” value in test [4] (score 0-3, abdominal part of prostate, 10 mg/kg, model 2.6 ± 0.5) amounted to 2.1 ± 2.0. In test [4] (score 0-4, abdominal part of prostate, 10 mg/kg, model 2.6 ± 1.3), the “Degree of infiltration of neutrophils” value is recorded as 2.2 ± 1.3.
